Converted amounts (≈) assume the structure as drawn. Where only a bound is given, the exact number is not on record here.

The test system of data set [1] is Mycobacterium tuberculosis. The data set can be described thus: Antitubercular activity against Mycobacterium tuberculosis H37Rv after 7 days by MABA method. The data set is classed as functional. The note with it: 168 h. In general terms: Resazurin is reduced to fluorescent resorufin, in cell work by metabolically active cells.
Data set [2] in a line: Aqueous solubility of the compound in 0.01 M HCl at pH 2 after 12 hrs by UV-based HPLC analysis. The data set is classed as physicochemical.
Data set [3] is described as follows: Half life in ICR mouse at 25 mg/kg, po by HPLC analysis. The data set is classed as ADME, organism-based. The note with it: in vivo.
Data set [4] in a line: Cmax in ICR mouse at 25 mg/kg, po by HPLC analysis. Details: dose 25 mg/kg, route oral. The data set is classed as ADME, organism-based. The settings on record: in vivo.
Data set [5] can be described thus: AUC (0 to infinity) in ICR mouse at 25 mg/kg, po by HPLC analysis. The data set is classed as ADME, organism-based. Details: dose 25 mg/kg, route oral, time infinity. The settings on record: in vivo.
Data set [6] in a line: Tmax in ICR mouse at 25 mg/kg, po by HPLC analysis. The data set is classed as ADME, organism-based. The settings on record: in vivo.
Data set [7] is described as follows: Cytotoxicity against African green monkey Vero cells measured after 72 hrs by MTT assay. The data set is classed as cell-based. The settings on record: chlorocebus sabaeus. Background: Tetrazolium assays rely on reduction of a dye to a coloured formazan, in cell work by metabolically active cells.

One may read the MIC90 as the lowest concentration that inhibits either 90% of growth or 90% of the strains tested, depending on the study. As to `CCc1nc2cc(Cl)ccn2c1C(=O)NCc1ccc(N2CCN(CCC3CCCCC3)CC2)cc1`, the MIC90 in data set [1] amounted to 1.59 µM (≈ 0.81 µg/mL).
The same measure, in the same setting: for `CCc1nc2ccc(Cl)cn2c1C(=O)NCc1ccc(N2CC3CN(c4ccc(OC(F)(F)F)cc4)CC3C2)cc1` (configuration not stated) the value was 0.058 µM (≈ 0.0339 µg/mL); for `CCc1nc2cc(Cl)ccn2c1C(=O)NCc1ccc(N2CCN(CC3CCCCC3)CC2)cc1`, 0.84 µM (≈ 0.415 µg/mL); for `O=c1nc(N2CCN(CC3CCCCC3)CC2)sc2c([N+](=O)[O-])cc(C(F)(F)F)cc12` [MACOZINONE], < 0.035 µM.
The same measure, in the same setting: for `CCc1nc2ccc(Cl)cn2c1C(=O)NCc1ccc(N2CCN(CCC3CCCCC3)CC2)cc1` the value was 0.103 µM (≈ 0.0523 µg/mL); for `CCc1nc2ccc(Cl)cn2c1C(=O)NCc1ccc(N2CCN(Cc3ccc(OC(F)(F)F)cc3)CC2)cc1`, < 0.035 µM.
The solubility is how much of the substance goes into solution per volume. By half-life is commonly meant the time needed for the level to fall by half in the phase considered. As usually defined, the Cmax is the highest concentration seen after dosing. For orientation: AUC(0-inf) means total exposure, with the tail of the curve extrapolated. Usually Tmax stands for the time at which the peak concentration occurs. What is called CC50 is the concentration that lowers cell viability or growth by half. The molecule `CCc1nc2ccc(Cl)cn2c1C(=O)NCc1ccc(N2CC3CN(CC4CCCCC4)CC3C2)cc1` (configuration not stated) had a solubility at 12 h in data set [2] of 628 µg/mL (≈ 1210 µM). In addition, in data set [3], the half-life was 4.27 h. This molecule showed a Cmax in data set [4] of 4180 ng/mL. Also, the AUC(0-inf) in data set [5] turned out to be 9050 ng·h/mL. For the same molecule, the MIC90 in data set [1] is < 0.035 µM. Further, the Tmax in data set [6] was 0.25 h. For the same molecule, the CC50 at 72 h in data set [7] is > 100 µM.
The molecule `CCc1nc2cc(Cl)ccn2c1C(=O)NCc1ccc(N2CC3CC2CN3CC2CCCCC2)cc1` (configuration not stated) returned an MIC90 in data set [1] of 1.27 µM (≈ 0.641 µg/mL).
In data set [1], `CCc1nc2ccc(Cl)cn2c1C(=O)NCc1ccc(N2CC3CCC2CN3CC2CCCCC2)cc1` (configuration not stated) gave an MIC90 of 0.062 µM (≈ 0.0322 µg/mL).
Same read-out and setting: to `CO[C@H]1/C=C/O[C@@]2(C)Oc3c(C)c(O)c4c(O)c(c(/C=N/N5CCN(C)CC5)c(O)c4c3C2=O)NC(=O)/C(C)=C\C=C\[C@H](C)[C@H](O)[C@@H](C)[C@@H](O)[C@@H](C)[C@H](OC(C)=O)[C@@H]1C` [RIFAMPIN] belongs 0.038 µM (≈ 0.0313 µg/mL).
Molecule `CCc1nc2ccc(Cl)cn2c1C(=O)NCc1ccc(N2CCC3(CC2)CCN(c2ccc(OC(F)(F)F)cc2)CC3)cc1` yielded a solubility at 12 h in data set [2] of 1110 µg/mL (≈ 1770 µM). The half-life in data set [3] was 12.3 h. This molecule came in with a Cmax in data set [4] of 7420 ng/mL. This molecule registered an AUC(0-inf) in data set [5] of 153000 ng·h/mL. In addition, the MIC90 in data set [1] was < 0.035 µM. In addition, the Tmax in data set [6] worked out at 2.67 h. For the same molecule, in data set [7], the CC50 at 72 h is 70.2 µM.
`CCc1nc2ccc(Cl)cn2c1C(=O)NCc1ccc(N2CC3CN(Cc4ccc(OC(F)(F)F)cc4)CC3C2)cc1` (configuration not stated) gave a solubility at 12 h in data set [2] of 1130 µg/mL (≈ 1880 µM). This molecule showed a half-life in data set [3] of 5.23 h. For the same molecule, the Cmax in data set [4] was 2670 ng/mL. Moreover, the AUC(0-inf) in data set [5] is 19800 ng·h/mL. Further, in data set [1], the MIC90 is < 0.035 µM. Besides, in data set [6], the Tmax was 0.83 h. Moreover, the CC50 at 72 h in data set [7] came out at 20.5 µM.
In turn, `CCc1nc2ccc(Cl)cn2c1C(=O)NCc1ccc(N2CC3CC2CN3CC2CCCCC2)cc1` (configuration not stated) came in with an MIC90 in data set [1] of 0.452 µM (≈ 0.229 µg/mL).
Consider `CCc1nc2ccc(Cl)cn2c1C(=O)NCc1ccc(N2CCC(c3ccc(OC(F)(F)F)cc3)CC2)cc1` [TELACEBEC], for which, in data set [1], the MIC90 is < 0.035 µM. Besides, the CC50 at 72 h in data set [7] was > 100 µM.
`CCc1nc2ccc(Cl)cn2c1C(=O)NCc1ccc(N2CCN(CC3CCCCC3)CC2)cc1` gave a solubility at 12 h in data set [2] of 1230 µg/mL (≈ 2500 µM). The molecule also gave a half-life in data set [3] of 2.75 h. The same molecule yielded a Cmax in data set [4] of 24100 ng/mL. The molecule further showed an AUC(0-inf) in data set [5] of 53800 ng·h/mL. The MIC90 in data set [1] was < 0.035 µM. The Tmax in data set [6] amounted to 0.25 h. The same molecule registered a CC50 at 72 h in data set [7] of 53.5 µM.
`NNC(=O)c1ccncc1` [ISONIAZID]: in data set [1], the MIC90 is 0.277 µM (≈ 0.038 µg/mL).
On the same count and under the same terms, for `CCc1nc2cc(Cl)ccn2c1C(=O)NCc1ccc(N2CC3CCC2CN3CC2CCCCC2)cc1` (configuration not stated) the value was 1.48 µM (≈ 0.769 µg/mL).

The record behind these values is ChEMBL document CHEMBL4400510, “Synthesis and antitubercular evaluation of reduced lipophilic imidazo[1,2-a]pyridine-3-carboxamide derivatives” (Eur J Med Chem, 2019).
